The values below come from US20260355318A1, “MOLECULAR MACHINES FOR TREATMENT OF CANCER, FUNGAL INFECTIONS, OR BACTERIAL INFECTIONS” (priority 2022, published 2026).

Test [1] relates to C. albicans. Put plainly: Time-kill assay, C. albicans. Conditions: C. albicans, 2×MIC, 405-nm light at 292 mW cm^−2. The test is classed as cell-based, Candida albicans. The method, then: For yeasts, five independent colonies were collected from 24-h SDAE plates, inoculated into yeast peptone with 2% dextrose (YPD), and grown for 24 h at 30 °C. Cells were then sub-cultured in fresh medium and grown for ~9 h. Afterward, the cells were centrifuged (5,000 ×g, 5 min), washed, and resuspended in phosphate-buffered saline (PBS) to ~10^6 CFU mL^−1. For A. fumigatus, conidia suspensions (~10^4 CFU mL^−1) were prepared in PBS as previously described.
Amphotericin B (AMB, 4×MIC) controls were prepared likewise, but light was omitted. Aliquots were collected in 1-min increments for up to 10 min, serially diluted in PBS, and plated on SDAE medium. Plates were incubated at 30 ° C for 48 h with confirmation after 72 h (yeasts) or at 28 ° C for 7 days with confirmation after 14 days (A. fumigatus), after which the CFU number was determined. The results were expressed as the logarithm of base 10 of the ratio between the CFU at each time point and the CFU at time 0. The detection limit of the method was ~1 log10 CFU mL^−1.

In test [2] the test system is C. albicans. Description: Checkerboard interaction with conventional antifungals (FICI), C. albicans. The conditions noted are these: for FICI: 405-nm light. The test is classed as cell-based, Candida albicans. The method, then: A modified checkerboard assay was used to study the interaction of visible-light-activated MMs with conventional antifungals in C. albicans. […] The type of interaction between MMs and conventional antifungals was assessed by calculating the fractional inhibitory concentration index (FICI), with a FICI of ≤0.5, 0.5<x≤4, or >4, denoting synergistic, additive, or antagonistic interactions, respectively (Odds, 2003).
The interaction of MMs with conventional antifungal agents in C. albicans was investigated by determining the MIC of different antifungals alone and after treatment with visible-light-activated MMs using a modified broth microdilution checkerboard assay (Cantón et al., 2005) in an 8×8-well configuration. […] The fractional inhibitory concentration index (FICI) was determined as the sum of the MIC of the MM and the antifungal drug when used in combination divided by their MIC when used alone. An FICI index of ≤0.5, 0.5<x≤4, or >4 indicates synergistic, additive, and antagonistic interactions, respectively (Odds, 2003).

The nature of test [3]: Singlet oxygen generation (DPBF). Conditions: irradiated. An excerpt:
Percentage of DCFH-DA-(FIG. 45E) and APF-(FIG. 45F) positive cells, as detected using flow cytometry. UV-VIS spectra of the singlet oxygen trap DPBF in the presence of the fast antibacterial motor MM 1 (FIG. 45G) or the inert slow motor ARV 3-202 (FIG. 45H). (FIG. 451) Rate of decrease of the absorption of DPBF at 410 nm, indicative of singlet oxygen generation, in the presence of MM 1 or its slow analog ARV 3-202. […] Flow cytometry data (at least 10 000 cells) was acquired in a spectral analyzer (Sony SA3800) and analyzed using FlowJo software. Results are shown as the mean of at least 3 biological replicas±standard error of the mean. Comparisons between samples were performed in GraphPad Prism 8 using a Kruskal-Wallis test for comparison between three or more samples or an unpaired t-test for comparisons between two samples. * p<0.05. not significant=n.s.

For another test, the system named is superoxide dismutase. Description: Superoxide dismutase (SOD) activity. The test is classed as cell-based, Candida albicans. Conditions: 0.5×MIC, p<0.05. As to the method:
Superoxide dismutase (SOD) activity was determined using a Superoxide Dismutase Assay Kit (Caymanchem, MI, USA) per the distributor's instructions. Lipid peroxidation was determined using a TBARS assay kit (TCA method) (Caymanchem, MI, USA) per the distributor's instructions. SOD activity and MDA levels were normalized by protein content determined by the Pierce assay (Pierce™ BCA Protein Assay Kit, Thermo Fisher Scientific, MA, USA).

For test [4], the system named is C. albicans mitochondria and plasma membrane. Description: Colocalization analysis by confocal microscopy. Conditions: no light. The test is classed as cell-based, Candida albicans. As to the method:
Colocalization analysis of MMs was performed as previously described (Benhamou et al., 2018; Vida and Emr, 1995) with modifications. A single isolated colony was picked from 24-h SDAE plates, diluted in liquid YPD, and grown at 30 ° C for 24 h. Cells were then re-diluted in fresh YPD medium and grown statically in Ibidi u-dishes (Ibidi GmbH, Munich, Germany) for 24 h at 30 ° C The cells were washed, and then YPD medium containing 8 μM MM 1 and 10 nM MitoTracker™ Green (Thermo Fisher Scientific, MA, USA) was added. After a 30-min dark incubation at 30 ° C, the solution was replaced with fresh medium containing 40 nM FM™ 4-64 (Thermo Fisher Scientific, MA, USA). Cells were immediately imaged in a Nikon Al—RSI confocal system mounted on a Nikon Ti-E widefield fluorescence microscope (Nikon Corporation, NY, USA). Cells were imaged directly on the Ibidi imaging dish using a 60×water immersion objective (numerical aperture of 1.27, 0.17 mm working distance). Colocalization was calculated in the Fiji version of ImageJ using the Colocalization Threshold tool and the Coloc-2 plugin.

The test system of another test is HEK293T cells. Put plainly: Toxicity to HEK293T cells (CellTiter-Glo) and therapeutic index. It counts as cell-based, human. Conditions: ratio between IC50 (HEK293T) and MIC. The method, then:
The toxicity of visible-light-activated MMs to mammalian cells was investigated in human embryonic kidney cells (HEK293T) treated with increasing MM concentrations and 87.6 J cm^−2 of 405-nm light. […] The MM concentration that reduced viability by 50% (IC50), calculated from dose-response curves (FIG. 16C), ranged from 1.61-6.02 µM (FIG. 16D). The IC50 and MIC were used to calculate the therapeutic index. With a therapeutic index ≥1 (FIG. 16D), MM 1 was used for in vivo and ex vivo studies.
The biocompatibility of MMs with […] HEK293T cells was assessed using the CellTiter-Glo® Luminescent Cell Viability Assay (Promega, WI, USA) per the manufacturer's instructions by treating cells with increasing concentrations of different MMs plus 405-nm light (87.6 J cm^−2). Dose-response curves were used to determine the MM concentrations that reduced cell viability by 50% (IC50). The therapeutic index was calculated as the ratio between the IC50 and the MIC.
Background: In ATP-based viability assays light output follows the ATP content of the culture.

Consider `C[C@@H]1Cc2ccc3ccccc3c2/C1=C1\c2ccccc2Sc2cc(NCCN)ccc21` (racemic) [MM 6, N^1-(9-(2-methyl-2,3-dihydro-1H-cyclopenta[a]naphthalen-1-ylidene)-9H-thioxanthen-3-yl)ethane-1,2-diamine], for which the “time to reduce cell numbers to limit of detection” value in the test with C. albicans [1] was 5 min.

With `C[C@@H]1Cc2ccc3ccccc3c2/C1=C1\c2ccccc2Sc2cc(NCCN(C)C)ccc21` [MM 1, N^1N^1-dimethyl-N^2-(9-(2-methyl-2,3-dihydro-1H-cyclopenta[a]naphthalen-1-ylidene)-9H-thioxanthen-3-yl) ethane-1,2-diamine], the “type of interaction with conventional antifungals” value with C. albicans [2] was “synergized with all antifungals tested”. Besides, the FICI in the test on C. albicans [2] (MM 1 + ciclopirox) was 0.093; with C. albicans [2] (MM 1 + fluconazole) it was 0.500; with C. albicans [2] (MM 1 + voriconazole), 0.500. For the same compound, the singlet oxygen generation result in test [3] is “lower than that of its slow, inert counterpart”. In addition, the superoxide dismutase activity entry in the test on superoxide dismutase is “increased superoxide dismutase activity”. The “areal colocalization with FM 4-64” value in test [4] stood at 5.2%. Besides, the “areal colocalization with MitoTracker Green” value in test [4] was found to be 52.5%. For the same compound, the therapeutic index in the test with HEK293T cells is given as at least 1.
